From patent publication US11590116B2 (THERAVANCE BIOPHARMA R&D IP, LLC, priority 2019, dated 2023)
Where two headings read alike, the source gives them in different places.

How the values were obtained:
[1] = biological target: T1, recombinant human ALK5 (TGF-βR1) protein (Homo sapiens, UniProt P36897); experiment: Biochemical ALK5 (TGF-βR1) assay to measure pKi (LANCE Ultra ULight kinase assay); details: apparent pKi from pIC50 by Cheng-Prusoff
T1 construct: purchased Life Technologies PR9075A
T1 sequence (P36897 34-503): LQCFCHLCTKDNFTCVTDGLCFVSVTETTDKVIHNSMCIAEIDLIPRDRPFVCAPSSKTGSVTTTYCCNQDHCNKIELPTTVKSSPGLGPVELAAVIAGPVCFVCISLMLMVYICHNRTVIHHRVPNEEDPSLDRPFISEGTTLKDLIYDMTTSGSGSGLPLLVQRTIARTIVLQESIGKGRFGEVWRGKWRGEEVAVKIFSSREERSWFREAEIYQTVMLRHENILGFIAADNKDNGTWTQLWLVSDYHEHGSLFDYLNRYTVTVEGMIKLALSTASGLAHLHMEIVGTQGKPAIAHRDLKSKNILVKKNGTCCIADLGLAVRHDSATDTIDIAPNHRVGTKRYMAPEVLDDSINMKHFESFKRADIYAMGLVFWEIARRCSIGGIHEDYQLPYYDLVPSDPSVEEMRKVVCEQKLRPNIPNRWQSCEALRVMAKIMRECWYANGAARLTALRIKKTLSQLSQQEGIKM
Method: The assays were performed in a 384-well plate (24 columns×16 wells/rows). An Echo® 550 Liquid Handler (Labcyte) was used to prepare various intermediate concentrations of compounds of the present disclosure in 100% DMSO. From the intermediate concentrations, a range of concentrations (from 10 μM to 25 pM corresponding to volumes up to 105 nL) were prepared and ejected into a final assay plate to be used to create individual dose response curves for each of the subject compounds. To a separate column within the assay plate, 105 nL of DMSO in each well was used to establish a maximum assay signal.
With a multidrop dispenser, 8 μL of enzyme mixture (1.25× final) was added to each well. […] The plate was then sealed with an adhesive seal and allowed to equilibrate for 60 minutes at room temperature.
Next, 2 μL of 125 μM ATP (5× final, 125 μM ATP prepared in assay buffer with 2 mM DTT) was added to the incubated mixtures, covered with a MicroClime® Environmental Lid (Product No. LLS-0310, Labcyte) and immediately transferred to 37° C. The reactions were allowed to proceed at 37° C. for 60 minutes before terminating with the addition of 10 μL of detection antibody (LANCE® (lanthanide chelate excite) Ultra Europium-anti-phospo-DNA Topoisomerase 2-alpha (Thr1342)) in detection mixture (12 mM EDTA, 4 nM detection antibody prepared in detection buffer (50 mM Tris-HCl, 150 mM NaCl, 0.5% BSA (Fraction V), pH 7.0)) at room temperature. The plate was then read on a Perkin Elmer EnVision Plate Reader using europium specific reader settings with excitation and emission wavelengths set to 320 or 340 nm and 665 nm, respectively.
For dose-response analyses, percent inhibition versus compound concentrations were plotted, and pIC50 values were determined from a 4-parameter robust fit model with GraphPad Prism V5 Software (GraphPad Software, Inc., La Jolla, Calif.). This model obtains pIC50 values by fitting the sigmoidal dose-response (variable slope) equation to the data. Results were expressed as pIC50 (negative logarithm of IC50) and subsequently converted to pKi (negative logarithm of dissociate constant, K) using the Cheng-Prusoff equation. The higher the value of pKi (lower value of Ki), the greater the inhibition of ALK5 activity.

[2] = test system: TGF-β-stimulated SMAD3 phosphorylation in BEAS-2B cells; experiment: Cellular ALK5 potency assay, inhibition of TGF-β stimulated pSMAD3 formation in BEAS-2B cells; type: cell-based; details: Homo sapiens, read-out: BEAS2B pIC50 (converted)
Method: The potency of compounds of the present disclosure for inhibition of TGF-β-stimulated SMAD3 phosphorylation was measured in BEAS-2B cells, a human lung epithelial cell line. TGF-β signals through activin receptor-like kinase 5 (ALK5) immediately prior to SMAD3 phosphorylation.
BEAS-2B cells were grown using 50% DMEM (Life Technologies) and 50% F-12 (Life Technologies) media, supplemented with 10% Fetal Bovine Serum (ATCC), 25 mM HEPES (Life Technologies), and 1× Pen-Strep (Life Technologies). Cells were cultured in a humidified incubator set at 37° C., 5% CO2, and trypsonized using 0.25% Trypsin with 0.5% polyvinylpyrrolidone (PVP).
For the assay, BEAS-2B cells were seeded at 7,500 cells/well (25 μL/well) in a 384-well plate and cultured overnight. Before dosing, growth media was aspirated and the wells were rinsed with HBSS Buffer (HBSS with Calcium and Magnesium, Life Technologies) supplemented with 25 mM HEPES (Life Technologies) and 1% Bovine Serum Albumin (Roche). Compounds were serially diluted in DMSO, then further diluted with supplemented HBSS Buffer (50 μL/well) to create a compound plate 3× of the final assay concentration, at 0.3% DMSO. The diluted compounds were then added to the cells (8 μL/well) and incubated at 37° C., 5% CO2 for 1 hour. After the compound incubation, TGF-β (R&D Systems) reconstituted in supplemented HBSS Buffer was added to the cells ([…], final concentration 10 ng/mL) and incubated for a further 30 minutes, after which the cells were immediately lysed with AlphaLISA lysis buffer (PerkinElmer). AlphaLISA Acceptor and Detector beads (PerkinElmer) were added 2 hours apart, then incubated overnight to be read the next day. The potency of the compound was determined through analysis of dose-dependent quantified changes in pSMAD3 signal from baseline (non-compound treated TGF-β stimulated cells). Data are expressed as pIC50 (negative decadic logarithm IC50) values.

[3] = inhibition of TGF-β stimulated pSMAD3 formation, BEAS-2B cells

In the case of `Cc1cccc(-c2nc3ccccn3c2-c2ccc3ncc(N4CCC(N(C)C)C4)cc3n2)n1` (racemic) [Compound 285, rac-(3S)-N,N-dimethyl-1-[6-[2-(6-methyl-2-pyridyl)imidazo[1,2-a]pyridin-3-yl]-1,5-naphthyridin-3-yl]pyrrolidin-3-amine], the Ki ([1]; read-out: ALK5 pKi (converted)) is reported as 0.0398 to 0.316 nM and the IC50 [2, 3] is reported as 25.1 to 158 nM.

Compound `Cc1cccc(-c2n[nH]cc2-c2ccc3ncc(N4C[C@@H](C)N(C)C[C@H]4C)cc3n2)n1` (racemic) [Compound 296, 2-[3-(6-methyl-2-pyridyl)-1H-pyrazol-4-yl]-7-[rac-(2R,5R)-2,4,5-trimethylpiperazin-1-yl]-1,5-naphthyridine] has a Ki ([1]; read-out: ALK5 pKi (converted)) of 0.0398 to 0.316 nM and an IC50 [2, 3] of 25.1 to 158 nM.

With `COCC1CN(c2cnc3ccc(-c4c[nH]nc4-c4cccc(C)n4)nc3c2)CCN1` (racemic) [Compound 298, 2-[3-(6-methyl-2-pyridyl)-1H-pyrazol-4-yl]-7-[rac-(3R)-3-(methoxymethyl)piperazin-1-yl]-1,5-naphthyridine] the Ki ([1]; read-out: ALK5 pKi (converted)) was 0.0398 to 0.316 nM and the IC50 [2, 3] was 25.1 to 158 nM.

`Cc1cccc(-c2n[nH]cc2-c2ccc3ncc(N4CCC(O)C4)cc3n2)n1` (racemic) [Compound 312, rac-(3R)-1-[6-[3-(6-methyl-2-pyridyl)-1H-pyrazol-4-yl]-1,5-naphthyridin-3-yl]pyrrolidin-3-ol] showed a Ki ([1]; read-out: ALK5 pKi (converted)) of less than 0.0316 nM and an IC50 [2, 3] of less than 20 nM.

Compound `Cc1cccc(-c2nnn(Cc3ccccc3)c2-c2ccc3ncc(N4CCC(N(C)C)C4)cc3n2)n1` (racemic) [Compound 331, rac-(3S)-1-[6-[3-benzyl-5-(6-methyl-2-pyridyl)triazol-4-yl]-1,5-naphthyridin-3-yl]-N,N-dimethyl-pyrrolidin-3-amine] has a Ki ([1]; read-out: ALK5 pKi (converted)) of 0.0398 to 0.316 nM and an IC50 [2, 3] of 200 to 1260 nM.

With `Cc1nc(-c2nc3ccccn3c2-c2ccc3ncc(N4CCC(N(C)C)C4)cc3n2)ccc1F` (racemic) [Compound 347, rac-(3S)-1-[6-[2-(5-fluoro-6-methyl-2-pyridyl)imidazo[1,2-a]pyridin-3-yl]-1,5-naphthyridin-3-yl]-N,N-dimethyl-pyrrolidin-3-amine] the Ki ([1]; read-out: ALK5 pKi (converted)) was 0.0398 to 0.316 nM and the IC50 [2, 3] was 25.1 to 158 nM.

`Cc1cccc(-c2n[nH]cc2-c2ccc3ncc(C4C[C@H]5CC[C@@H](C4)N5)cc3n2)n1` (mixture of isomers) [Compound 350, 2-[3-(6-methyl-2-pyridyl)-1H-pyrazol-4-yl]-7-[rac-(1S,5R)-8-azabicyclo[3.2.1]octan-3-yl]-1,5-naphthyridine] showed a Ki ([1]; ALK5 pKi) of 3.98 to 31.6 nM and an IC50 ([2]; BEAS-2B) of 200 to 1260 nM.

In the case of `COCC1CN(c2cnc3ccc(-c4c[nH]nc4-c4cccc(C)n4)nc3c2)CCN1C` (racemic) [Compound 354, 2-[3-(6-methyl-2-pyridyl)-1H-pyrazol-4-yl]-7-[rac-(3R)-3-(methoxymethyl)-4-methyl-piperazin-1-yl]-1,5-naphthyridine], the Ki ([1]; read-out: ALK5 pKi (converted)) is reported as less than 0.0316 nM and the IC50 [2, 3] is reported as 25.1 to 158 nM.

For `Cc1nc(-c2n[nH]cc2-c2ccc3ncc(-c4cnn(C[C@H]5CCC[C@H](N)C5)c4)cc3n2)ccc1F` (racemic) [Compound 395, rac-(1S,3S)-3-[[4-[6-[3-(5-fluoro-6-methyl-2-pyridyl)-1H-pyrazol-4-yl]-1,5-naphthyridin-3-yl]pyrazol-1-yl]methyl]cyclohexanamine], the Ki ([1]; read-out: ALK5 pKi (converted)) was less than 0.0316 nM and the IC50 [2, 3] was 25.1 to 158 nM.

Work on `Cc1cccc(-c2n[nH]cc2-c2ccc3ncc(N4C[C@H]5C[C@@H]4CN5C)cc3n2)n1` (racemic) [Compound 437, 2-[3-(6-methyl-2-pyridyl)-1H-pyrazol-4-yl]-7-[rac-(1R,4R)-5-methyl-2,5-diazabicyclo[2.2.1]heptan-2-yl]-1,5-naphthyridine] yielded a Ki ([1]; read-out: ALK5 pKi (converted)) of 0.398 to 3.16 nM and an IC50 [2, 3] of 25.1 to 158 nM.

`Cc1cccc(-c2n[nH]cc2-c2ccc3ncc(N4C[C@@H](C)NC[C@H]4C)cc3n2)n1` (racemic) [Compound 462, 2-[3-(6-methyl-2-pyridyl)-1H-pyrazol-4-yl]-7-[rac-(2R,5R)-2,5-dimethylpiperazin-1-yl]-1,5-naphthyridine] gave a Ki ([1]; read-out: ALK5 pKi (converted)) of 0.398 to 3.16 nM and an IC50 [2, 3] of 25.1 to 158 nM.

For `Cc1nc(-c2n[nH]cc2-c2ccc3ncc(-c4cnn(C[C@H]5CCC[C@@H](N)C5)c4)cc3n2)ccc1F` (racemic) [Compound 463, rac-(1R,3S)-3-[[4-[6-[3-(5-fluoro-6-methyl-2-pyridyl)-1H-pyrazol-4-yl]-1,5-naphthyridin-3-yl]pyrazol-1-yl]methyl]cyclohexanamine], the Ki ([1]; read-out: ALK5 pKi (converted)) was less than 0.0316 nM and the IC50 [2, 3] was 25.1 to 158 nM.

For `Cc1cccc(-c2n[nH]cc2-c2ccc3ncc(N4CCNC(C(N)=O)C4)cc3n2)n1` (racemic) [Compound 497, rac-(2S)-4-[6-[3-(6-methyl-2-pyridyl)-1H-pyrazol-4-yl]-1,5-naphthyridin-3-yl]piperazine-2-carboxamide], the Ki ([1]; read-out: ALK5 pKi (converted)) was 0.0398 to 0.316 nM and the IC50 [2, 3] was 200 to 1260 nM.

For `Cc1cccc(-c2n[nH]cc2-c2ccc3ncc(N(C)C4CCN(C(C)C)C4)cc3n2)n1` (racemic) [Compound 503, N-methyl-6-[3-(6-methyl-2-pyridyl)-1H-pyrazol-4-yl]-N-[rac-(3R)-1-isopropylpyrrolidin-3-yl]-1,5-naphthyridin-3-amine], the Ki ([1]; read-out: ALK5 pKi (converted)) was less than 0.0316 nM and the IC50 [2, 3] was 25.1 to 158 nM.

Work on `Cc1cccc(-c2n[nH]cc2-c2ccc3ncc(N4CCC(N(C)C)C4)cc3n2)n1` (racemic) [Compound 505, rac-(3S)-N,N-dimethyl-1-[6-[3-(6-methyl-2-pyridyl)-1H-pyrazol-4-yl]-1,5-naphthyridin-3-yl]pyrrolidin-3-amine] yielded a Ki ([1]; read-out: ALK5 pKi (converted)) of less than 0.0316 nM and an IC50 [2, 3] of 25.1 to 158 nM.

Work on `Cc1cccc(-c2[nH]cnc2-c2ccc3ncc(NCCN(C)C4CCNC4)cc3c2)n1` (racemic) [Compound 537, N′-methyl-N-[6-[5-(6-methyl-2-pyridyl)-1H-imidazol-4-yl]-3-quinolyl]-N′-[rac-(3R)-pyrrolidin-3-yl]ethane-1,2-diamine] yielded a Ki ([1]; read-out: ALK5 pKi (converted)) of 0.0398 to 0.316 nM and an IC50 [2, 3] of 200 to 1260 nM.

`Cc1nc(-c2nc3ccccn3c2-c2ccc3ncc(N4CCC(N(C)C)C4)cc3c2)ccc1F` (racemic) [Compound 544, rac-(3S)-1-[6-[2-(5-fluoro-6-methyl-2-pyridyl)imidazo[1,2-a]pyridin-3-yl]-3-quinolyl]-N,N-dimethyl-pyrrolidin-3-amine] showed a Ki ([1]; read-out: ALK5 pKi (converted)) of 0.0398 to 0.316 nM and an IC50 [2, 3] of 25.1 to 158 nM.

With `Cc1nc(-c2n[nH]cc2-c2ccc3ncc(-c4cnn(C[C@@H]5CC[C@H](N)C5)c4)cc3n2)ccc1F` (racemic) [Compound 547, rac-(1S,3R)-3-[[4-[6-[3-(5-fluoro-6-methyl-2-pyridyl)-1H-pyrazol-4-yl]-1,5-naphthyridin-3-yl]pyrazol-1-yl]methyl]cyclopentanamine] the Ki ([1]; read-out: ALK5 pKi (converted)) was 0.0398 to 0.316 nM and the IC50 [2, 3] was 200 to 1260 nM.
